The record followed here is US20140023592A1, “SELF COUPLING RECOMBINANT ANTIBODY FUSION PROTEINS” (RWTH Aachen, priority 2007, published 2014).

Chain of FKBP-AGT fusion protein (SNAP-FKBP) (P16455 1-182 C62A/K125A/A127T/R128A/G131K/G132T/M134L/R135S/C150S/N157G/S159E limits assumed): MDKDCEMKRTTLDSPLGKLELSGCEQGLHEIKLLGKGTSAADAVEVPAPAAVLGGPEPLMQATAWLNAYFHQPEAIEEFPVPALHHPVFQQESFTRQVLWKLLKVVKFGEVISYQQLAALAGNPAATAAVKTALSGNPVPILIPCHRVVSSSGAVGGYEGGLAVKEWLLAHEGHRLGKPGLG

In the assay the test system is FKBP-AGT fusion protein (SNAP-FKBP). Kind of assay: Reactivity with FKBP-AGT fusion protein (protein trimer formation, SDS-PAGE/coomassie). The format is biochemical. Conditions: in vitro, 4 h incubation at rt, SDS-PAGE with coomassie staining. How it is done:
Determination of the Reactivity of Compound (FIG. 89), (FIG. 90), (FIG. 91), (FIG. 92) and (FIG. 96) with FKBP-AGT Fusion Protein 1 μL of a 591 μM solution of FKBP protein fused to a variant of AGT available from Covalys as […] and 1 μL of a 100 μM solution of compound (FIG. 89), (FIG. 90), (FIG. 91), (FIG. 92) or (FIG. 96) are added to 8 μL of a solution of 50 mM Tris-HCl pH 7.5; 100 mM NaCl; 0.1% Tween20TM; 1 mM DTT. Following a 4 h incubation at rt, 15 μL of a solution of 100 mM Tris-HCl pH 6.8; 2% SDS; 35% glycerol; 10 mM EDTA; 20 mM DTT is added. Then the mixture is boiled for 5 min at 95° C. After cooling to rt, 25 μL of this solution is loaded on a 4-20% linear gradient SDS-PAGE gel. After electrophoresis, the proteins are coomassie stained in gel to visualize protein trimer.
For the substance “N-Tris-{[2-(BG-PEG12-NH)-carbonylethoxy]methyl}-methyl-3-[2-(2-maleimidoethyl)disulfanyl]propanoylamide [FIG. 96]”, the “structural ability to trigger the formation of a protein trimer” value was “confirmed”. The result for “N-Tris-{[2-(BG-PEG12-NH)-carbonylethoxy]methyl}-methyl 5-maleimidopentanecarboxamide [FIG. 92]” reads “confirmed”; that for “N-Tris-{[2-(BG-PEG12-NH)-carbonylethoxy]methyl}methyl 7-(diethylamino)coumarin-3-carboxamide [FIG. 89]”, “confirmed”; that for “N-Tris-{[2-(BG-PEG12-NH)-carbonylethoxy]methyl}-methyl nile red-oxyacetamide [FIG. 91]”, “confirmed”. The result for “N-Tris-{[2-(BG-PEG12-NH)-carbonylethoxy]methyl}-methyl ATTO-495-carboxamide [FIG. 90]” reads “confirmed”.
